Measurements: patent US20180265867A1, “NUCLEIC ACID MOLECULES WITH ENHANCED ACTIVITY” (priority 2015, published 2018)
d = 2'-deoxy (DNA); r = 2'-OH (RNA)

Legend:
Ctnnb1 (β-Catenin) = assay: Ctnnb1 expression in MC3T3-E1 cells by quantitative RT-PCR; assay type: cell-based, mouse
Method: (§1) MC3T3-E1 cells were cultured in α-MEM (Sigma-Aldrich, Haverhill, UK) medium containing 10% FBS, 1% L-Glutamine, and 1% antibiotics (PeSt) at 37° C. with 5% CO2. One day prior to the miRNA treatment, 35,000 cells were plated per each well of a 24-well plate. On the experiment day, cells were replaced with 2% heat inactivated-FBS containing α-MEM medium with 1% L-Glutamine, and 1% antibiotics (PeSt). miR-34a-CP (final concentration: 50 nM) was given to the each well. Mirvana scrambled miRNA mimic was used as a negative control.
After 24 hours of transfection, and incubation, RNA extraction was performed by using miRCURY RNA Isolation Kit—Cell and Plant (#300100) and protocol from Exiqon, Vedbæk, Denmark. RNA samples were treated with DNase for 30 minutes at 37 degrees, thereafter inactivated with a DNase inactivation solution (TUTRBO DNase AM2238 thermofisher). Thereafter, RNA concentrations were measured using NanoDrop ND-1000 from NanoDrop Technologies, Wilmington, Del.
The cDNA was made from the total RNA using High Capacity cDNA reverse transcription kit (Applied Biosystems, USA). Reactions were performed on a 96-well Bio-Rad Thermal Cycler PCR System at 37° C. for 60 minutes, and at 95° C. for 5 min respectively. Real-time PCR reactions were performed as follows: 10 μl of 2×TaqMan® Universal PCR Master Mix, no AmpErase® UNG (Applied Biosystems, USA), 9 μl 1:5 diluted cDNA, and 1 μl of TaqMan gene specific assay mix. Final volume of the reaction mix was 20 uL. Internal control gene beta-actin (ACTB) (Applied Biosystems, USA) was selected as control for normalization of TaqMan data. The qRT-PCR reaction comprised a non-template control of cDNA in order to rule out any non-specific reading. Taqman probes for Ctnnb1, Sox9, Actb, were obtained from Applied Biosystems. The qRT-PCR amplification was carried out using the Bio-Rad qRT-PCR Thermocycler.
In order to achieve the transfection reagent free delivery of therapeutically potential microRNAs, we tested miR-34a and compared with miR-34a-CP. Since microRNAs unlike siRNAs have multiple targets in the cell, and there is a necessity to reduce the off-target and undesirable effects if any, we have also designed siRNA model siR-34a-CP as stated above. We have used mouse preosteoblast cell line MC3T3-E1 obtained from calvarial bone for the in-vitro functional validation of cell-penetrating molecules. On the day before transfection experiment, 35000 MC3T3-E1 cells were cultured per each well of the 24-well culture plate in alpha-Minimum Essential Medium with 10% heat inactivated FBS, 1% L-Glutamine, 1% antibiotics (Pe/St). […] 5% CO2. Thereafter, RNA extraction, cDNA preparation, and quantitative real-time PCR was performed by using TaqMan procedure.

SOX9 = SOX9 expression in MC3T3-E1 cells by real-time PCR; assay type: cell-based, mouse; details: MC3T3-E1 cells (FIG. 13)
Method: as §1
After 24 hours of transfection, and incubation, RNA extraction was performed by using miRCURY RNA Isolation Kit—Cell and Plant (#300100) and protocol from Exiqon, Vedbæk, Denmark. […] Thereafter, RNA concentrations were measured using NanoDrop ND-1000 from NanoDrop Technologies, Wilmington, Del.
The cDNA was made from the total RNA using High Capacity cDNA reverse transcription kit (Applied Biosystems, USA). […] The qRT-PCR reaction comprised a non-template control of cDNA in order to rule out any non-specific reading. […]
Since overexpression of Ctnnb1 is indicative of osteogenic differentiation of cells, we determined the expression of transcription factor that could be activated. For this purpose, we measured the levels of […] marker SOX9 that is implicated in endochondral ossification.

[1] = test system: A2780 human ovarian cancer cells; assay: Cell viability (ApoTox-Glo Triplex Assay) in A2780 cells; assay type: cell-based; details: 10 nM to 1000 nM, 48 h (FIG. 15)
Method: Cell viability study of 5-FU and siRNA derivatives bearing 5FU molecules were performed using, ApoTox-Glo™ Triplex Assay kit following manufacturer's protocol. Briefly, A2780 human ovarian cancer cells were seeded in 384 well BD Facon black plates (1000 cells in 50 μL/well) using automated Biomek FX pipetting workstation and incubated at 37° C. for 24 h for cell attachment. Stock solution of 5FU, siRNA-5FU2 and siRNA 5FU5 was prepared in cell culture medium (DMEM) respectively. siRNA-5FU2 and siRNA 5FU5 corresponds to Stat3 siRNA bearing 2 or 5 molecules of 5FU at the 3′end of the sense strand. After 24 h, different volume of stock solution was added to each well using non-contact acoustic dispenser (Echo 555), to obtain a gradient concentration ranging from 10 nM to 1000 nM and incubated for additional 48 h at 37° C. After 48 h, 20 μl of medium was treated with 5 μl of cell viability assay reagent, containing both GF-AFC substrate and bis-AAF-R110 substrate and incubated for 30 min at 37° C. Fluorescence values were recorded at two wavelength sets: 400Ex/505Em (Viability) and 485Ex/520Em (Cytotoxicity) using Envision Multilabel Plate Reader and the cell viability were obtained as a percentage of the untreated control (100% cell viability). […] All the cell experiments were measured in triplicate.

Row | Compound | Ctnnb1 expression (Ctnnb1 (β-Catenin); 50 nM, 24 h, alone without transfection reagent (FIG. 11)) | Ctnnb1 expression (Ctnnb1 (β-Catenin); without transfection reagent MaTra (FIG. 12)) | SOX9 levels (SOX9) | cytotoxicity [1]
1 | miR-34a-CP: Cell penetrating miR-34a, sense SEQ ID NO: 22 with dA5, antisense SEQ ID NO: 23 (sense CAAUCAGCAAGUAUACUGCCCUAAAAA; antisense UGGCAGUGUCUUAGCUGGUUGU; sense: sugars from the 5' end r22 d5, backbone not given here; antisense: RNA, backbone not given here) | up regulation of Ctnnb1 | up regulation of Ctnnb1 | upregulated | –
2 | O=c1[nH]cc(F)c(=O)[nH]1 [5FU, 5-Fluorouracil] | – | – | – | dose dependent cytotoxicity
